Results taken from paper PMC2045673, “Site-specific acetylation of ISWI by GCN5” (BMC Molecular Biology, 2007).

Columns and labels:
Assay in all cases: radiometric HAT assay, SDS-PAGE autoradiography
Assay type in all cases: biochemical
MOF (HA-MOF) = biological target: T1, MOF (HA-MOF) (Drosophila melanogaster, UniProt O02193); settings: labelled compound; co-substrate histones; pH 7.8, 26 °C
T1 construct: HA-tagged recombinant MOF
T1 sequence (O02193 1-827): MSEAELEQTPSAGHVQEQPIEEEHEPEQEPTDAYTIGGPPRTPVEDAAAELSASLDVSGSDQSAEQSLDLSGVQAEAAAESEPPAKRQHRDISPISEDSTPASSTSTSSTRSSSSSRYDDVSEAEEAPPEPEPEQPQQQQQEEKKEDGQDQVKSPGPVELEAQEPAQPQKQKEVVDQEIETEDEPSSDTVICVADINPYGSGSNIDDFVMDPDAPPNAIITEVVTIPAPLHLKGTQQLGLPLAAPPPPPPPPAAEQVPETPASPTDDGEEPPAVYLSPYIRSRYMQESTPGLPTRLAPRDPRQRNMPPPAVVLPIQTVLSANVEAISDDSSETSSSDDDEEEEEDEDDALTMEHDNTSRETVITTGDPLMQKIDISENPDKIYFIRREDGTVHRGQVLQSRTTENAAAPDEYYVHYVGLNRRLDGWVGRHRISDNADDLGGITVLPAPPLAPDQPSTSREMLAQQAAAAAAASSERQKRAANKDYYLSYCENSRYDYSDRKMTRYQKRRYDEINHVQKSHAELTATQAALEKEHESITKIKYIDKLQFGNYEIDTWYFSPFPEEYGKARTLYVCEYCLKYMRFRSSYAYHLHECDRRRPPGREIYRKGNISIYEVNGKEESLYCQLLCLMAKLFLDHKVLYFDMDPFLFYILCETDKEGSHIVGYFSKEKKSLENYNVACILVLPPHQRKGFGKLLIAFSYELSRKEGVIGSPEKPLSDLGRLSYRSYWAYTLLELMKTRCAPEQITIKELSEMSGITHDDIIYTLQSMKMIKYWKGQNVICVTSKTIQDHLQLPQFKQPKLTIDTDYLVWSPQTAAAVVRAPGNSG

GCN5 (GST-hGCN5) = biological target: T2, GCN5 (GST-hGCN5) (Homo sapiens, UniProt Q92830); settings: labelled compound; co-substrate histones, ISWI or peptide; pH 7.8, 26 °C
T2 construct: gene KAT2A; GST-tagged, recombinant from E. coli

p300 (FLAG-p300) = biological target: T3, p300 (FLAG-p300) (Homo sapiens, UniProt Q09472); settings: labelled compound; co-substrate histones, ISWI or peptide; pH 7.8, 26 °C
T3 construct: gene EP300; FLAG-tagged recombinant p300
T3 sequence (Q09472 2-2414): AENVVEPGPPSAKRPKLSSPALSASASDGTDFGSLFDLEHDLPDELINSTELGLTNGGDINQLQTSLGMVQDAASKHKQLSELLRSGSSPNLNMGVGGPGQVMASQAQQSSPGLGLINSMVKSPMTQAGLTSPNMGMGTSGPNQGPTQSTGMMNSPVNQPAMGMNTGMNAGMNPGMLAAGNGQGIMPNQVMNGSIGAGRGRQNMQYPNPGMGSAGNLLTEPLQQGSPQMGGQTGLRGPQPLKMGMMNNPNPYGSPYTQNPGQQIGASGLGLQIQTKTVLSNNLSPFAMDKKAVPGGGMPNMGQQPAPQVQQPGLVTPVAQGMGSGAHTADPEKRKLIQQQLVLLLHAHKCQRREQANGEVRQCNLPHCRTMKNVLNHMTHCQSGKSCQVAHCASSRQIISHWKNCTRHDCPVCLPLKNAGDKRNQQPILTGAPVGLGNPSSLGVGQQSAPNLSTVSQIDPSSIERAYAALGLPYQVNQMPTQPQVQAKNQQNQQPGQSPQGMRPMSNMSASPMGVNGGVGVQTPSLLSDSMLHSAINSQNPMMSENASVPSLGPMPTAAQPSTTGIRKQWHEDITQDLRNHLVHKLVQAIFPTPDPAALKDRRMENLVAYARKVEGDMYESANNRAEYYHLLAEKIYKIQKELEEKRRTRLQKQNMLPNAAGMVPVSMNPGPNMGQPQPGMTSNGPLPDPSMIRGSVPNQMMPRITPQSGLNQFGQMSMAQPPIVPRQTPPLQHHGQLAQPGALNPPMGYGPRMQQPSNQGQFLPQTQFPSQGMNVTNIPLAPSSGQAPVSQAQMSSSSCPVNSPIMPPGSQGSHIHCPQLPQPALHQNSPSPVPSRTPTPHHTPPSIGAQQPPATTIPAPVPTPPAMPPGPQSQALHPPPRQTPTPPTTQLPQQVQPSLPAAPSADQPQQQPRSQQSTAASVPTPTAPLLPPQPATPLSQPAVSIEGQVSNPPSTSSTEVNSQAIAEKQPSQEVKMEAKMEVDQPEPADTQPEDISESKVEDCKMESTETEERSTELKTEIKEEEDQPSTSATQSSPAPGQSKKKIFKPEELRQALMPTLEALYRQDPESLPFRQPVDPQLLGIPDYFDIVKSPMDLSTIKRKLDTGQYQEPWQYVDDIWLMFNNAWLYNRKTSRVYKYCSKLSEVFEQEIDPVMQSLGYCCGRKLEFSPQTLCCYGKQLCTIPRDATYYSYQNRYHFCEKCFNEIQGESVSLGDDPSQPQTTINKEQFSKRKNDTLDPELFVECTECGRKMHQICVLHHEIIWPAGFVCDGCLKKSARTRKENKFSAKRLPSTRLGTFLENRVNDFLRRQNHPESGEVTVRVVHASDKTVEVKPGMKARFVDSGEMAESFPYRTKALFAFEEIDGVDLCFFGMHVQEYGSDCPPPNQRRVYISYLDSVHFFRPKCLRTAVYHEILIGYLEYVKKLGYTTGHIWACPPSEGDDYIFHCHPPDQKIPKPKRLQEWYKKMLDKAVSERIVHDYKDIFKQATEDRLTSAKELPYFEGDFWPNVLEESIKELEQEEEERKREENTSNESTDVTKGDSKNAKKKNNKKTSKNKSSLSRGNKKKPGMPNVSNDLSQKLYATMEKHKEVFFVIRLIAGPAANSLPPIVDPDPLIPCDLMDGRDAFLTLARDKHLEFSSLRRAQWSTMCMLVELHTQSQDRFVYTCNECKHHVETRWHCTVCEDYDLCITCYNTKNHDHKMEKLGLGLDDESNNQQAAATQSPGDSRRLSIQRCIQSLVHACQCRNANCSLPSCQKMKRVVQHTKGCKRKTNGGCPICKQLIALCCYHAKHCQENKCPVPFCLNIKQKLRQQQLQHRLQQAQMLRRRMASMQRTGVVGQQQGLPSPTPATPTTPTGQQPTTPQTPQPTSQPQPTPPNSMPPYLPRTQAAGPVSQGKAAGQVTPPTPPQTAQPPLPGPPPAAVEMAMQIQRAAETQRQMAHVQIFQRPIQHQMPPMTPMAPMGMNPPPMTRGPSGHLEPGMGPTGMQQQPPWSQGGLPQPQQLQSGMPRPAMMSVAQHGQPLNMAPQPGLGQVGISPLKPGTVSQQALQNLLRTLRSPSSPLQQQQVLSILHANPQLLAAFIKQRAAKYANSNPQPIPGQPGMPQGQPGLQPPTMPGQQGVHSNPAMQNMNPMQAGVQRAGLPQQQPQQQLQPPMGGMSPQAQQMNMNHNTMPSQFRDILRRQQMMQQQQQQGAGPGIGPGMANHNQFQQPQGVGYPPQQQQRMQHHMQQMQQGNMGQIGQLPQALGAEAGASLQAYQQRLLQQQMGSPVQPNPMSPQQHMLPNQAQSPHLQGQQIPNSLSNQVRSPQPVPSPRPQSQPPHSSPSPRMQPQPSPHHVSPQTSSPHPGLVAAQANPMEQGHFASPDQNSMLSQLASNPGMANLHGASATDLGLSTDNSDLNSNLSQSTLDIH

T2 sequence (Q92830 whole entry): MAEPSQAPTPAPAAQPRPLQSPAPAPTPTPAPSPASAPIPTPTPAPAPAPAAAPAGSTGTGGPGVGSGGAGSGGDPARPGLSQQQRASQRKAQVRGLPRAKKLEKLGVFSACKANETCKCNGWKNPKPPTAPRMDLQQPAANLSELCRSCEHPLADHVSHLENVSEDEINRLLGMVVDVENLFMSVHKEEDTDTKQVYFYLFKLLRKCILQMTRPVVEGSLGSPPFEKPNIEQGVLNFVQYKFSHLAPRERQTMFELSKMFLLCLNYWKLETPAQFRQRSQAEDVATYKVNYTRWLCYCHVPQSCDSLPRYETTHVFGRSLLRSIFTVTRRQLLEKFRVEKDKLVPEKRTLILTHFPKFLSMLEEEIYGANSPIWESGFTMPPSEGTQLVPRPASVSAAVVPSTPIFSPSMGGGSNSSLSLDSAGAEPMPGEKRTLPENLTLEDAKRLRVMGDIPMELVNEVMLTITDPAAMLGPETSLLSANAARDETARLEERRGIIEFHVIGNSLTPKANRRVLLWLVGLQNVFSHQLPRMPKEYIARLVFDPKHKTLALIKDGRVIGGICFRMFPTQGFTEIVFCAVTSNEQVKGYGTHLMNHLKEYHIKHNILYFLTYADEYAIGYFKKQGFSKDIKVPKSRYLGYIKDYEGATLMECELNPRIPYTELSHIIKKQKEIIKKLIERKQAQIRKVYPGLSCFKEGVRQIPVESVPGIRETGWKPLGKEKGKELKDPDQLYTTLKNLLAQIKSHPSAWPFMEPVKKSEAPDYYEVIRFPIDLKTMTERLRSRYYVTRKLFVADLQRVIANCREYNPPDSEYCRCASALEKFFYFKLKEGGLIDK

CC(=O)SCCNC(=O)CCNC(=O)[C@H](O)C(C)(C)COP(=O)(O)OP(=O)(O)OC[C@H]1O[C@@H](n2cnc3c(N)ncnc32)[C@H](O)[C@@H]1OP(=O)(O)O [acetyl-CoA]
radiometric HAT assay, SDS-PAGE autoradiography (MOF (HA-MOF)): The histone acetyltransferase activities of recombinant GCN5, p300 and MOF were assayed | radiometric HAT assay, SDS-PAGE autoradiography (GCN5 (GST-hGCN5)): The histone acetyltransferase activities of recombinant GCN5, p300 and MOF were assayed | radiometric HAT assay, SDS-PAGE autoradiography (p300 (FLAG-p300)): The histone acetyltransferase activities of recombinant GCN5, p300 and MOF were assayed
